Data on eleven molecules can be found in ChEMBL document CHEMBL1201862, “PubChem BioAssay data set” (2004).

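Values below derive from 48-hour exposures of cells grown in 96-well plates, with endpoints linearly interpolated between the two concentrations bracketing the appropriate inhibition level. At the GI50, growth is halved.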 Active and inactive are the calls of the source. Rule as the data show it: active = GI50 up to about 1.1 µM and inactive = higher. Where only a bound is given, the exact number is not on record here.

Common to all, as to assay: growth of human tumour cells (NCI), 48 h
Assay [1] deals with ACHN.
Assay [2] deals with CAKI-1.
Assay [3] relates to DLD-1.
In assay [4] the test system is HOP-62.
For assay [5], the system named is K562.
The test system of assay [6] is M14.
Assay [7] deals with MOLT-4.
Assay [8] deals with Malme-3M.
In assay [9] the test system is RPMI-8226.
Assay [10] concerns RXF 393.
The subject of assay [11] is SK-MEL-2.
In assay [12] the test system is SK-OV-3.
For assay [13], the system named is SN12C.
The test system of assay [14] is SNB-19.
The test system of assay [15] is SW-620.
Assay [16] deals with NCI-H522.
Assay [17] deals with A498.
In assay [18] the test system is MCF7.
The test system of assay [19] is PC-3.
The test system of assay [20] is T47D.

For the molecule `COc1ccc(C2c3cc4c(cc3OC(O)(CO)C2C(=O)O)OCO4)c(OC)c1OC.COc1ccc(C2c3cc4c(cc3OC3(O)COC(=O)C23)OCO4)c(OC)c1OC` (configuration not stated), the GI50 in assay [1] was > 100 µM (inactive); in [2], 65.8 µM (inactive); in assay [3], > 100 µM (inactive); in [4] it was > 100 µM (inactive); in assay [5], 46.2 µM (inactive); in assay [6], > 100 µM (inactive). In addition, the GI50 in [7] is > 100 µM (inactive); in [8] it was > 100 µM (inactive); in [9], > 100 µM (inactive); in [10], 74 µM (inactive); in assay [11] it was > 100 µM (inactive); in assay [12] it was > 100 µM (inactive). Further, the GI50 in assay [13], in assay [14] and in assay [15] was > 100 µM (inactive) throughout.
On to `CC(=O)Nc1ccc(-c2nnc(SCC(=O)Nc3ccc(C)cc3)o2)cc1`, for which the GI50 in assay [1] is 31.6 µM (inactive); in assay [2], 11.9 µM (inactive); in assay [3] it was 14.9 µM (inactive); in assay [4], 56.2 µM (inactive); in assay [5] it was 42.4 µM (inactive); in assay [6], 16.1 µM (inactive). Moreover, the GI50 in assay [7] was 32.1 µM (inactive); in assay [8], 15.7 µM (inactive); in [16] it was 18.2 µM (inactive); in assay [9] it was 26.2 µM (inactive); in assay [10], 19 µM (inactive); in assay [11], 14.5 µM (inactive). The GI50 in assay [12] is 49.2 µM (inactive); in assay [13], 15.8 µM (inactive); in [15], 19.1 µM (inactive).
For the molecule `O=C(Nc1nc2ncn(CCOC(=O)c3ccccc3)c2c(=O)[nH]1)c1ccccc1`, the GI50 in assay [17] is > 100 µM (inactive); in assay [1], > 81.1 µM (inactive); in assay [2], 20.7 µM (inactive); in assay [4], 20.4 µM (inactive); in assay [5] it was 3.05 µM (inactive); in assay [6], 15.3 µM (inactive). In addition, the GI50 in assay [18] was 4.4 µM (inactive); in assay [7], 6.64 µM (inactive); in assay [8], 42.3 µM (inactive); in [16] it was 2.75 µM (inactive); in assay [19] it was 47.2 µM (inactive); in [9], 6.1 µM (inactive). The GI50 in assay [10] is 42.4 µM (inactive); in [11] it was 35.2 µM (inactive); in assay [12] it was > 50.7 µM (inactive); in assay [13] it was 11.8 µM (inactive); in assay [14], 17.3 µM (inactive); in assay [15] it was 4.98 µM (inactive). The GI50 in assay [20] is 28.9 µM (inactive).
On to `O=C(O)c1ccccc1/C=N/N=C1c2ccccc2-c2ccccc21`, for which the GI50 in assay [17] was 68.4 µM (inactive); in [1] it was 45.1 µM (inactive); in assay [2], 35.3 µM (inactive); in assay [4] it was 42.6 µM (inactive); in [5] it was 32.1 µM (inactive); in assay [6], 42.2 µM (inactive). Also, the GI50 in [18] is 31.2 µM (inactive); in [7], 22.5 µM (inactive); in assay [8], 23.3 µM (inactive); in assay [16] it was 28.6 µM (inactive); in assay [19], 30.3 µM (inactive); in assay [9] it was 20.2 µM (inactive). Further, the GI50 in assay [10] was 29 µM (inactive); in [11] it was 44.1 µM (inactive); in [12], 44.9 µM (inactive); in assay [13], 28.2 µM (inactive); in assay [14], 39.9 µM (inactive); in assay [15], 32.4 µM (inactive). In addition, in assay [20], the GI50 was 30.7 µM (inactive).
Consider `CC(=O)N1CC[N+](C)(CCCCN2c3ccccc3Sc3cc(N=[N+]=[N-])ccc32)CC1`, for which the GI50 in [17] was > 100 µM (inactive); in assay [1], > 100 µM (inactive); in assay [2], > 100 µM (inactive); in assay [4], > 100 µM (inactive); in assay [5] it was 49.8 µM (inactive); in assay [6], > 100 µM (inactive). Moreover, the GI50 in [18], in assay [7], in [8], in assay [16], in [19] and in assay [9] was > 100 µM (inactive) throughout. In addition, the GI50 in assay [10], in assay [11], in [12], in assay [13], in [14] and in [15] was > 100 µM (inactive) in each case. The GI50 in assay [20] was > 100 µM (inactive).
In the case of `CCN(CC)c1ccc(/N=C2/C=CC(=C(C#N)C#N)c3ccccc32)c(C)c1`, the GI50 in [1] was 2.59 µM (inactive); in [2], 1.72 µM (inactive); in assay [3], 2.44 µM (inactive); in assay [4] it was 2.2 µM (inactive); in assay [5], 1.56 µM (inactive); in assay [6] it was 1.48 µM (inactive). Also, the GI50 is 1.96 µM (inactive) in [7]; 1.87 µM (inactive) in assay [8]; 1.38 µM (inactive) in [9]; 1.08 µM (active) in assay [10]; 2.08 µM (inactive) in assay [11]; 3.83 µM (inactive) in assay [12]. Also, the GI50 in [13] is 2.53 µM (inactive); in assay [14] it was 3.78 µM (inactive); in [15], 1.58 µM (inactive).
As to `COC(=O)c1sc2ncc3c(c2c1N)CC(C)CC3` (configuration not stated), the GI50 in [17], in [1], in assay [2], in [4], in [5] and in assay [6] was > 100 µM (inactive) in each case. The GI50 in assay [18], in [7], in assay [8], in [16], in assay [19] and in assay [9] was > 100 µM (inactive) each time. Moreover, the GI50 in assay [10] was 70.6 µM (inactive); in assay [11] it was > 100 µM (inactive); in assay [12], > 100 µM (inactive); in assay [13], > 100 µM (inactive); in [14], > 100 µM (inactive); in assay [15], > 100 µM (inactive). In addition, in assay [20], the GI50 was > 100 µM (inactive).
Take `O=C(O)c1cc2ccccc2c(S(=O)(=O)O)c1O`: the GI50 in assay [17], in assay [1], in assay [2], in assay [4], in assay [5] and in assay [6] was > 100 µM (inactive) in each case. In addition, the GI50 in assay [18], in [7], in assay [8], in [16], in assay [19] and in [9] was > 100 µM (inactive) in each case. The GI50 in [10], in [11], in [12], in assay [13], in assay [14] and in [15] was > 100 µM (inactive) each time. Besides, in assay [20], the GI50 was > 100 µM (inactive).
As for `CC(=O)/C=N/CC(=O)O`, the GI50 in [17], in assay [1], in assay [2], in [4], in assay [5] and in assay [6] was > 100 µM (inactive) in each case. Moreover, the GI50 in assay [18], in assay [7], in assay [8], in assay [16], in [19] and in [9] was > 100 µM (inactive) in each case. Besides, the GI50 in assay [10], in assay [11], in [12], in assay [13], in [14] and in assay [15] was > 100 µM (inactive) in each case. For the same molecule, the GI50 in assay [20] is > 100 µM (inactive).
On to `O=[N+]([O-])c1ccc(/N=N\c2c(O)ccc3ccccc23)c([N+](=O)[O-])c1`, for which the GI50 is > 100 µM (inactive) in assay [17]; > 100 µM (inactive) in assay [1]; > 100 µM (inactive) in assay [2]; > 100 µM (inactive) in [4]; 19.8 µM (inactive) in assay [5]; > 100 µM (inactive) in [6]. Moreover, the GI50 in assay [18] was > 100 µM (inactive); in [7], 70.6 µM (inactive); in assay [8], > 100 µM (inactive); in assay [16] it was > 100 µM (inactive); in assay [19] it was > 100 µM (inactive); in [9] it was > 83.4 µM (inactive). The GI50 in [10], in assay [11], in assay [12], in assay [13], in [14] and in [15] was > 100 µM (inactive) in each case. Besides, the GI50 in [20] is > 100 µM (inactive).
Regarding `COc1cc2c(cc1OCCCC(=O)Nc1cc(C(=O)Nc3cc(C(=O)Nc4cc(C(=O)NCCCN(C)C)n(C)c4)n(C)c3)n(C)c1)N=C[C@@H]1CCCN1C2=O`, the GI50 is 13.2 µM (inactive) in [17]; 1.61 µM (inactive) in [1]; 0.587 µM (active) in assay [2]; 3.56 µM (inactive) in [4]; 2.19 µM (inactive) in [5]; 1.66 µM (inactive) in assay [6]. Besides, the GI50 was 2.16 µM (inactive) in assay [18]; 3.2 µM (inactive) in [7]; 1.82 µM (inactive) in assay [8]; 0.224 µM (active) in assay [16]; 2.28 µM (inactive) in [19]; 1.67 µM (inactive) in assay [9]. The GI50 in assay [10] is 1.66 µM (inactive); in [11] it was 2.53 µM (inactive); in assay [12], 14.6 µM (inactive); in assay [13], 1.2 µM (inactive); in [14], 6.32 µM (inactive); in assay [15], 1.69 µM (inactive). In addition, in assay [20], the GI50 was 1.79 µM (inactive).
